Tests used:
Assay type in all cases: in vivo
Details in all cases: rated four to five weeks after treatment
[1] = test system: GALIUM APARINE; experiment: Preemergence herbicidal evaluation, GALAP (Galium); set-up: key to GALAP: visual rating scale 0-9 vs control
Text: (§1) Results of herbicide evaluation are expressed on a rating scale (0-9). The scale is based upon a visual observation of plant stand, vigor, malformation, size, chlorosis and overall plant appearance as compared with a control.
(§2) The preemergence herbicidal activity of the test compounds of the present invention is exemplified by the following tests in which the seeds of a variety of monocotyledonous and dicotyledonous plants are separately mixed with potting soil and planted on top of approximately one inch of soil in separate pint cups. After planting, the cups are sprayed with the selected aqueous acetone solution containing test compound in sufficient quantity to provide the equivalent of about 0.125 to 0.50 kg per hectare of test compound per cup. The treated cups are then placed on greenhouse benches, watered and cared for in accordance with conventional greenhouse procedures. From four to five weeks after treatment, the tests are terminated and each cup is examined and rated according to the rating system provided in Example 42.

[2] = test system: AMBROSIA ARTEMISIIFOLIA, L.; experiment: Preemergence herbicidal evaluation, AMBEL (Ragweed, Common); set-up: key to AMBEL: visual rating scale 0-9 vs control
Text: as §1, §2

[3] = test system: TRITICUM AESTIVUM, CV. APOLLO; experiment: Preemergence herbicidal evaluation, TRZAWO (Wheat, Winter, CV. APOLLO); set-up: key to TRZAWO: visual rating scale 0-9 vs control
Text: as §1, §2

[4] = test system: ORYZA SATIVA, L. TEBONNET; experiment: Preemergence herbicidal evaluation, ORYSAT (Rice, Tebonnet); set-up: key to ORYSAT: visual rating scale 0-9 vs control
Text: as §1, §2

[5] = test system: GLYCINE MAX(L)MERR. CV. WILLIAMS; experiment: Preemergence herbicidal evaluation, GLXMAW (Soybean, Williams); set-up: key to GLXMAW: visual rating scale 0-9 vs control
Text: as §1, §2

[6] = test system: SETARIA VIRIDIS, (L) BEAU; experiment: Preemergence herbicidal evaluation, SETVI (Foxtail, Green); set-up: key to SETVI: visual rating scale 0-9 vs control
Text: as §1, §2

[7] = test system: IPOMOEA SPP.; experiment: Preemergence herbicidal evaluation, IPOSS (Morningglory Spp.); set-up: key to IPOSS: visual rating scale 0-9 vs control
Text: as §1, §2

[8] = test system: CASSIA OBTUSIFOLIA, L.; experiment: Preemergence herbicidal evaluation, CASOB (Sicklepod); set-up: key to CASOB: visual rating scale 0-9 vs control
Text: as §1, §2

[9] = test system: ZEA MAYS L.; experiment: Preemergence herbicidal evaluation, ZEAMX (Corn, Field); set-up: key to ZEAMX: visual rating scale 0-9 vs control
Text: as §1, §2

[10] = test system: CHENOPODIUM ALBUM, L.; experiment: Preemergence herbicidal evaluation, CHEAL (Lambsquarters, Common); set-up: key to CHEAL: visual rating scale 0-9 vs control
Text: as §1, §2

[11] = test system: ECHINOCHLOA CRUS-GALLI, (L) BEAU; experiment: Preemergence herbicidal evaluation, ECHCG (Barnyardgrass); set-up: key to ECHCG: visual rating scale 0-9 vs control
Text: as §1, §2

[12] = test system: ABUTILON THEOPHRASTI, MEDIC.; experiment: Preemergence herbicidal evaluation, ABUTH (Velvetleaf); set-up: key to ABUTH: visual rating scale 0-9 vs control
Text: as §1, §2

[13] = test system: ECHINOCHLOA CRUS-GALLI, (L) BEAU; experiment: Postemergence herbicidal evaluation, ECHCG (Barnyardgrass)
Experimental: (§3) In the tests, seedling plants are grown in jiffy flats for about two weeks. The test compounds are dispersed in 50/50 acetone/water mixtures containing 0.5% TWEEN®20, a polyoxyethylene sorbitan monolaurate surfactant of Atlas Chemical Industries, in sufficient quantities to provide the equivalent of about 0.125 kg to 0.500 kg per hectare of active compound when applied to the plants through a spray nozzle operating at 40 psi for a predetermined time. After spraying, the plants are placed on greenhouse benches and are cared for in the usual manner, commensurate with conventional greenhouse practices. From four to five weeks after treatment, the seedling plants are examined and rated according to the rating system set forth below. Where more than one test is involved for a given compound, the data are averaged.
as §1

[14] = test system: SETARIA VIRIDIS, (L) BEAU; experiment: Postemergence herbicidal evaluation, SETVI (Foxtail, Green)
Experimental: as §3, §1

Which results are given for `C=CCn1c(=O)[nH]c(=O)n(-c2cc(N3C(=O)C4=C(CCCC4)C3=O)c(F)cc2Cl)c1=O` [Compound 18, N-[5-(3-Allylhexahydro-2,4,6-trioxo-s-triazin-1-yl)-4-chloro-2-fluorophenyl]-1-cyclohexene-1,2-dicarboximide]?
GALAP ([1]; Rate 0.125 kg/ha): 0.0; GALAP ([1]; Rate 0.250 kg/ha): 0.0; GALAP ([1]; Rate 0.500 kg/ha): 4.0; AMBEL ([2]; Rate 0.125 kg/ha): 0.0; AMBEL ([2]; Rate 0.250 kg/ha): 0.0; AMBEL ([2]; Rate 0.500 kg/ha): 0.0; TRZAWO ([3]; Rate 0.125 kg/ha): 0.0; TRZAWO ([3]; Rate 0.250 kg/ha): 0.0; TRZAWO ([3]; Rate 0.500 kg/ha): 0.0; ORYSAT ([4]; Rate 0.125 kg/ha): 0.0; ORYSAT ([4]; Rate 0.250 kg/ha): 0.0; ORYSAT ([4]; Rate 0.500 kg/ha): 0.0; GLXMAW ([5]; Rate 0.125 kg/ha): 0.0; GLXMAW ([5]; Rate 0.250 kg/ha): 0.0; GLXMAW ([5]; Rate 0.500 kg/ha): 0.0; SETVI ([6]; Rate 0.125 kg/ha): 0.0; SETVI ([6]; Rate 0.250 kg/ha): 0.0; SETVI ([6]; Rate 0.500 kg/ha): 0.0; IPOSS ([7]; Rate 0.125 kg/ha): 0.0; IPOSS ([7]; Rate 0.250 kg/ha): 0.0; IPOSS ([7]; Rate 0.500 kg/ha): 4.0; CASOB ([8]; Rate 0.125 kg/ha): 0.0; CASOB ([8]; Rate 0.250 kg/ha): 0.0; CASOB ([8]; Rate 0.500 kg/ha): 0.0; ZEAMX ([9]; Rate 0.125 kg/ha): 0.0; ZEAMX ([9]; Rate 0.250 kg/ha): 0.0; ZEAMX ([9]; Rate 0.500 kg/ha): 0.0; CHEAL ([10]; Rate 0.125 kg/ha): 0.0; CHEAL ([10]; Rate 0.250 kg/ha): 5.0; CHEAL ([10]; Rate 0.500 kg/ha): 7.0; ECHCG ([11]; Rate 0.125 kg/ha): 0.0; ECHCG ([11]; Rate 0.250 kg/ha): 0.0; ECHCG ([11]; Rate 0.500 kg/ha): 0.0; ABUTH ([12]; Rate 0.125 kg/ha): 0.0; ABUTH ([12]; Rate 0.250 kg/ha): 0.0; ABUTH ([12]; Rate 0.500 kg/ha): 0.0

Which “Herbicide rating (0-9) AMBEL” value ([2]; 0.125 kg/ha) does the source give for `Cn1c(=O)n(CC(=O)O)c(=O)n(-c2cc(N3C(=O)C4=C(CCCC4)C3=O)c(F)cc2Cl)c1=O` [Compound 3, 3-[2-Chloro-5-(1-cyclohexene-1,2-dicarbox-imido)-4-fluorophenyl]tetrahydro-5-methyl-2,4,6-trioxo-s-triazine-1(2H)-acetic acid] here?
The value was 0.0.

What about the “Herbicide rating (0-9) AMBEL” value ([2]; 0.250 kg/ha) of the same molecule?
The value was 0.0.

What about the “Herbicide rating (0-9) AMBEL” value ([2]; 0.500 kg/ha) of the same molecule?
Its value is 0.0.

What about the “Herbicide rating (0-9) ECHCG” value ([13]; 0.125 kg/ha) of the same molecule?
Its value is 0.0.

What about the “Herbicide rating (0-9) ECHCG” value ([13]; 0.250 kg/ha) of the same molecule?
Its value is 0.0.

And the “Herbicide rating (0-9) ECHCG” value ([13]; 0.500 kg/ha)?
Its value is 0.0.

And the “Herbicide rating (0-9) TRZAWO” value ([3]; 0.125 kg/ha)?
Its value is 0.0.

What about the “Herbicide rating (0-9) TRZAWO” value ([3]; 0.250 kg/ha) of the same molecule?
The value was 0.0.

And the “Herbicide rating (0-9) TRZAWO” value ([3]; 0.500 kg/ha)?
Its value is 0.0.

What about the “Herbicide rating (0-9) ORYSAT” value ([4]; 0.125 kg/ha) of the same molecule?
Its value is 0.0.

What about the “Herbicide rating (0-9) ORYSAT” value ([4]; 0.250 kg/ha) of the same molecule?
The value was 0.0.

And the “Herbicide rating (0-9) ORYSAT” value ([4]; 0.500 kg/ha)?
The value was 0.0.

And the “Herbicide rating (0-9) GLXMAW” value ([5]; 0.125 kg/ha)?
The value was 0.0.

What about the “Herbicide rating (0-9) GLXMAW” value ([5]; 0.250 kg/ha) of the same molecule?
Its value is 0.0.

And the “Herbicide rating (0-9) GLXMAW” value ([5]; 0.500 kg/ha)?
The value was 0.0.

What about the “Herbicide rating (0-9) SETVI” value ([14]; 0.125 kg/ha) of the same molecule?
The value was 0.0.

And the “Herbicide rating (0-9) SETVI” value ([14]; 0.250 kg/ha)?
Its value is 0.0.

What about the “Herbicide rating (0-9) SETVI” value ([14]; 0.500 kg/ha) of the same molecule?
Its value is 0.0.

What about the “Herbicide rating (0-9) IPOSS” value ([7]; 0.125 kg/ha) of the same molecule?
Its value is 0.0.

And the “Herbicide rating (0-9) IPOSS” value ([7]; 0.250 kg/ha)?
Its value is 0.0.

What about the “Herbicide rating (0-9) IPOSS” value ([7]; 0.500 kg/ha) of the same molecule?
The value was 0.0.

And the “Herbicide rating (0-9) ZEAMX” value ([9]; 0.125 kg/ha)?
The value was 0.0.

What about the “Herbicide rating (0-9) ZEAMX” value ([9]; 0.250 kg/ha) of the same molecule?
The value was 0.0.

And the “Herbicide rating (0-9) ZEAMX” value ([9]; 0.500 kg/ha)?
The value was 0.0.

What about the “Herbicide rating (0-9) ABUTH” value ([12]; 0.125 kg/ha) of the same molecule?
The value was 0.0.

What about the “Herbicide rating (0-9) ABUTH” value ([12]; 0.250 kg/ha) of the same molecule?
The value was 0.0.

And the “Herbicide rating (0-9) ABUTH” value ([12]; 0.500 kg/ha)?
Its value is 0.0.

For `Cn1c(=O)n(CC(=O)OC(C)(C)C)c(=O)n(-c2cc(N3C(=O)C4=C(CCCC4)C3=O)c(Cl)cc2Cl)c1=O` [Compound 7, Tert-butyl 3-[2,4-dichloro-5-(1-cyclohexene-1,2-dicarboximido)phenyl]tetrahydro-5-methyl-2,4,6-trioxo-s-triazine-1(2H)-acetate], which “Herbicide rating (0-9) AMBEL” value ([2]; 0.125 kg/ha) is on record?
The value was 0.0.

What about the “Herbicide rating (0-9) AMBEL” value ([2]; 0.250 kg/ha) of the same molecule?
The value was 0.0.

What about the “Herbicide rating (0-9) GLXMAW” value ([5]; 0.125 kg/ha) of the same molecule?
Its value is 0.0.

And the “Herbicide rating (0-9) GLXMAW” value ([5]; 0.250 kg/ha)?
The value was 0.0.

And the “Herbicide rating (0-9) GLXMAW” value ([5]; 0.500 kg/ha)?
The value was 0.0.

And the “Herbicide rating (0-9) SETVI” value ([6]; 0.125 kg/ha)?
Its value is 0.0.

And the “Herbicide rating (0-9) SETVI” value ([6]; 0.250 kg/ha)?
The value was 0.0.

What about the “Herbicide rating (0-9) SETVI” value ([6]; 0.500 kg/ha) of the same molecule?
Its value is 0.0.

What about the “Herbicide rating (0-9) IPOSS” value ([7]; 0.125 kg/ha) of the same molecule?
The value was 0.0.

And the “Herbicide rating (0-9) IPOSS” value ([7]; 0.250 kg/ha)?
The value was 0.0.

What about the “Herbicide rating (0-9) IPOSS” value ([7]; 0.500 kg/ha) of the same molecule?
Its value is 0.0.

What about the “Herbicide rating (0-9) CASOB” value ([8]; 0.125 kg/ha) of the same molecule?
The value was 0.0.

What about the “Herbicide rating (0-9) CASOB” value ([8]; 0.250 kg/ha) of the same molecule?
The value was 0.0.

What about the “Herbicide rating (0-9) CASOB” value ([8]; 0.500 kg/ha) of the same molecule?
The value was 0.0.

And the “Herbicide rating (0-9) ZEAMX” value ([9]; 0.125 kg/ha)?
Its value is 0.0.

What about the “Herbicide rating (0-9) ZEAMX” value ([9]; 0.250 kg/ha) of the same molecule?
Its value is 0.0.

What about the “Herbicide rating (0-9) ZEAMX” value ([9]; 0.500 kg/ha) of the same molecule?
Its value is 0.0.

What about the “Herbicide rating (0-9) ECHCG” value ([11]; 0.125 kg/ha) of the same molecule?
Its value is 0.0.

What about the “Herbicide rating (0-9) ECHCG” value ([11]; 0.250 kg/ha) of the same molecule?
The value was 0.0.

What about the “Herbicide rating (0-9) ECHCG” value ([11]; 0.500 kg/ha) of the same molecule?
The value was 0.0.

Source: patent EP0745599A2, “1-(3-Heterocyclylphenyl)-s-triazine-2,4,6-oxo or thiotrione herbicidal agents” (American Cyanamid Company, priority 1995, dated 1996)
